Measurements as given in BindingDB's records for doi:10.1021/acs.jmedchem.9b00966 (2019).

Key:
[1] = Reversal of P-gp mediated multidrug resistance in human DU145-TxR cells overexpressing P-gp assessed as potentiation of paclitaxel-induced cytotoxicity by measuring paclitaxel IC50 at 3 uM after 48 hrs by MTT assay (Rvb = 2120 nM)
[2] = Reversal of P-gp mediated multidrug resistance in human DU145-TxR cells overexpressing P-gp assessed as potentiation of paclitaxel-induced cytotoxicity by measuring paclitaxel IC50 at 10 uM after 48 hrs by MTT assay (Rvb = 2120 nM)
[3] = Reversal of P-gp mediated multidrug resistance in human DU145-TxR cells overexpressing P-gp assessed as potentiation of paclitaxel-induced cytotoxicity by measuring paclitaxel IC50 at 7 uM after 48 hrs by MTT assay (Rvb = 2120 nM)
[4] = Reversal of P-gp mediated multidrug resistance in human DU145-TxR cells overexpressing P-gp assessed as potentiation of paclitaxel-induced cytotoxicity by measuring paclitaxel IC50 at 5 uM after 48 hrs by MTT assay (Rvb = 2120 nM)

| Compound | IC50 [1] | IC50 [2] | IC50 [3] | IC50 [4] |
| --- | --- | --- | --- | --- |
| Cc1cc(C)c(-c2cc(NC(=O)CSc3cccc(NC(=O)c4cncc(Br)c4)c3)n(-c3ccccc3)n2)cc1C | 56 nM | 6 nM | 9 nM | 20 nM |
| Cc1cc(C)c(-c2cc(NC(=O)CSc3nnc4c(n3)[nH]c3ccccc34)n(-c3ccccc3)n2)cc1C | 426 nM | 17 nM | 17 nM | 21 nM |
| Cc1cc(C)c(-c2cc(NC(=O)CSCC(=O)NC(c3ccccc3)c3ccccc3)n(-c3ccccc3)n2)cc1C | 160 nM | 11 nM | 16 nM | 56 nM |
| Cc1cc(C)c(-c2cc(NC(=O)CSCC(=O)c3ccc4c(c3)Cc3ccccc3-4)n(-c3ccccc3)n2)cc1C | 266 nM | 57 nM | 62 nM | 154 nM |
| Cc1cc(C)c(-c2cc(NC(=O)CSc3n[nH]c(C4CC4)n3)n(-c3ccccc3)n2)cc1C | 629 nM | 21 nM | 59 nM | 194 nM |
| COc1cc(NC(=O)CSCC(=O)Nc2cc(-c3cc(C)c(C)cc3C)nn2-c2ccccc2)cc(OC)c1OC | 185 nM | 0.07 nM | 0.64 nM | 1.9 nM |
| Cc1cc(C)c(-c2cc(NC(=O)CSCC(=O)NCc3ccc(F)cc3)n(-c3ccccc3)n2)cc1C | 458 nM | 131 nM | 192 nM | 379 nM |
| Cc1cc(C)c(-c2cc(NC(=O)CSCC(=O)N3c4ccccc4CCc4ccccc43)n(-c3ccccc3)n2)cc1C | 164 nM | 4 nM | 6 nM | 52 nM |
| Cc1cc(C)c(-c2cc(NC(=O)CSCC(=O)NC34CC5CC(CC(C5)C3)C4)n(-c3ccccc3)n2)cc1C | 231 nM | 13 nM | 21 nM | 109 nM |
| Cc1cc(C)c(-c2cc(NC(=O)CSCC(=O)Nc3ccc4ncsc4c3)n(-c3ccccc3)n2)cc1C | 172 nM | 0.78 nM | 2.9 nM | 5.7 nM |
| Cc1cc(C)c(-c2cc(NC(=O)CSCC(=O)Nc3ccc4ccccc4c3)n(-c3ccccc3)n2)cc1C | 153 nM | 2 nM | 7 nM | 46 nM |
